What was measured:
[1] = tested on: Bacillus stearothermophilus spores; test: Spore outgrowth (color change) of indicators after prevacuum steam sterilization; assay type: cell-based; settings: Example 4, 4-pulse prevacuum steam 121° C., 7–18 min
Description: (§1) The indicators prepared for the Examples were dual rapid readout indicators that provided both a rapid, enzyme-based efficacy test and a confirmatory spore outgrowth test. Spores coated on the carrier strip 16 served as the source of active enzyme whose activity was measured by the rapid enzyme test. These same spores were then incubated in the spore outgrowth portion of the test.
(§2) Bacillus stearothermophilus, commercially available as ATCC 7953 from American Type Culture Collection, Rockville, Md., was grown overnight (16 hours) at 58° C. in tryptic soy broth. This culture was used to inoculate the surface of agar plates consisting of 8 g/l nutrient broth, 4 g/l yeast extract, 0.1 g/l manganese chloride and 20 g/l agar at pH 7.2. Plates were incubated at 58° C. for 72 hours. Spores were scraped from the plates and suspended in sterile distilled water. The spores were separated from the vegetative debris by centrifuging the suspension at 7000 rpm and 4° C. for 20 minutes. The supernatant was poured off and the spores were resuspended in sterile distilled water. The cleaning procedure was repeated several times. After the final wash, the spores were suspended in sterile distilled water, at a concentration of approximately 1×10^8 spores per milliliter.
(§3) The spores were then treated with the chemicals identified in Tables 1–5. All chemicals tested were obtained from commercial sources. The spores were centrifuged at 6000 rpm for 10 minutes. The supernatant and coating chemical mixtures were heated at 60–80° C. for several minutes and vortexed to get the material into solution. The spores were then mixed into the sterilant-resistant chemical solution. The sterilant-resistant chemical solution was applied to 5×25 mm, 591 A paper strips (Schleicher & Schuell, Inc., Keene, N.H.) by pipetting 10–15 microliters to each strip for a final population of about 1×10^6 spores per strip. The strips were dried 16 hours at 37° C.
(§4) The treated spore strips were placed on the bottom of the outer container 12 of the indicator 10 and a barrier was inserted between the spore strip 16 and the inner container 18, which contained enzyme substrate. A […] ( 11/16 inch) disc of polypropylene blown microfiber material, with a weight of 200 g/m^2, commercially available as “THINSULATE™ 200-B brand Thermal Insulation” from 3M Company, St. Paul, Minn., was used as the barrier. The inner container 18 contained 0.67 ml nutrient medium, consisting of 17 g of a bacteriological peptone and a 0.17 g/l of L-alanine, as well as 0.1 g 4-methylumbelliferyl-alpha-D-glucoside, commercially available from Sigma Chemical Company, St. Louis, Mo., dissolved in 200 microliters of N,N-dimethylformamide, and 0.03 g bromocresol purple pH indicator dye, per liter of water. The pH of the enzyme substrate and nutrient medium solution was adjusted to 7.6 with 0.1N sodium hydroxide.
(§5) Sterilization indicators were made as described above with each of the chemicals and concentrations described in Table 1. Control indicators were made using untreated spores. The indicators were placed in metal instrument trays and exposed at 121° C. in a Getinge Steam Sterilizer (Getinge International, Inc., 1100 Towbin Ave., Lakewood, N.J.) using a 4-pulse prevacuum cycle at 121° C. with a vacuum level of 0.075–0.085 bar and a steam pulse to 1.00 bar for each pulse. Indicators were exposed in the sterilizer for between 7 and 13 minutes. This cycle is depicted in the time-pressure diagram in FIG. 5. After exposure the inner containers containing the enzyme substrate and nutrient medium were crushed and the indicators were incubated at 60° C. The indicators were examined for fluorescence using a 3M™ ATTEST™ Model 190 Rapid Autoreader, commercially available from 3M Company, St. Paul, Minn. Additionally, spore growth, as indicated by a color change from purple to yellow, was determined visually after 168 hours of incubation at 60° C. […]

[2] = tested on: enzyme associated with Bacillus stearothermophilus spores; test: Rapid enzyme fluorescence readout of dual rapid readout indicators after prevacuum steam sterilization; assay type: biochemical; settings: 4-pulse prevacuum steam 121° C.; for FLUORESCENCE - PERCENT POSITIVE 1 HR / FLUORESCENCE - PERCENT POSITIVE 2 HR / FLUORESCENCE - PERCENT POSITIVE 3 HR / FLUORESCENCE - PERCENT POSITIVE 4 HR: Example 4, 7–18 min
Description: as §1, §2, §3, §4, §5

[3] = tested on: enzyme associated with Bacillus stearothermophilus spores; test: Rapid enzyme fluorescence readout of indicators after hydrogen peroxide plasma sterilization; assay type: biochemical; settings: 1–3 hours after exposure
Description: Sterilization indicators for Examples 6–9 were prepared as described above with the exception that closure member 22 of the sterilization indicator was constructed of TYVEK™ high-density polyethylene fiber material, commercially available from E.I. du Pont de Nemours and Co., Wilmington, Del.
(§6) Sterilization indicators were made as described above with spores that had been coated with each of the chemicals and concentrations listed in Table 6. The indicators were placed in instrument trays and exposed to a hydrogen peroxide plasma sterilization procedure at 45–55° C. in a STERRAD™ 100SI GMP Sterilizer, obtained from Advanced Sterilization Products Co., Irvine, Calif. During the sterilization procedure a vacuum was drawn in the sterilization chamber for 5–6 minutes until the pressure was reduced to 300 mTorr. A 1.8 ml aliquot of an aqueous solution of 58–60% hydrogen peroxide was then injected into the sterilization chamber over a period of about 6 minutes, yielding an empty chamber concentration of […] hydrogen peroxide, and hydrogen peroxide vapor was allowed to diffuse throughout the chamber for 1–22 minutes at 6–10 Torr. A vacuum was then drawn, reducing the pressure to 500 mTorr and removing all detectable hydrogen peroxide vapor from the chamber.
After exposure to the sterilization procedure, the indicators were removed from the sterilizer and the inner containers containing the enzyme substrate and nutrient medium were crushed. The indicators were then incubated at 60° C. and examined for fluorescence every hour for 5 hours using a 3M™ ATTEST™ Model 190 Rapid Autoreader, commercially available from 3M Company, St. Paul, Minn. Additionally, spore growth, as indicated by a color change from purple to yellow, was determined visually after 168 hours of incubation.
The number of growth positive indicators detected after 168 hours of incubation is recorded in Table 6.
as §6, with “7.” for “6.”
as §6, with “8.” for “6.”, “chamber. […]” for “chamber.”

Molecule	NO. GROWTH POSITIVE 168 HR ([1]; 50 mg/ml coating)	NO. GROWTH POSITIVE 168 HR ([1]; 100 mg/ml coating)	accuracy of sterilization indicators compared to indicators made with untreated spores [2]	FLUORESCENCE - PERCENT POSITIVE 1 HR ([2]; 50 mg/ml coating)	FLUORESCENCE - PERCENT POSITIVE 2 HR ([2]; 50 mg/ml coating)	FLUORESCENCE - PERCENT POSITIVE 3 HR ([2]; 50 mg/ml coating)	FLUORESCENCE - PERCENT POSITIVE 4 HR ([2]; 50 mg/ml coating)	FLUORESCENCE - PERCENT POSITIVE 1 HR ([2]; 100 mg/ml coating)	FLUORESCENCE - PERCENT POSITIVE 2 HR ([2]; 100 mg/ml coating)	FLUORESCENCE - PERCENT POSITIVE 3 HR ([2]; 100 mg/ml coating)	FLUORESCENCE - PERCENT POSITIVE 4 HR ([2]; 100 mg/ml coating)	accuracy of sterilization indicators compared to indicators made with untreated spores [3]	NO. GROWTH POSITIVE 168 HR ([1]; 25 mg/ml coating)	FLUORESCENCE - PERCENT POSITIVE 1 HR ([2]; 25 mg/ml coating)	FLUORESCENCE - PERCENT POSITIVE 2 HR ([2]; 25 mg/ml coating)	FLUORESCENCE - PERCENT POSITIVE 3 HR ([2]; 25 mg/ml coating)	FLUORESCENCE - PERCENT POSITIVE 4 HR ([2]; 25 mg/ml coating)
Decaglyceryl Monolaurate	11	23	improved	0%	27.3%	72.7%	72.7%	87%	100.0%	100.0%	100.0%	–	–	–	–	–	–
O=CC(=O)C=O [1,2,3-Propantrial]	–	–	–	–	–	–	–	–	–	–	–	improved	–	–	–	–	–
Hexaglyceryl Distearate	33	21	improved	30.3%	57.6%	97%	100%	71.4%	100%	100%	100%	–	29	27.6%	51.7%	58.6%	62.1%

Source: patent publication US7045343B2, “Sterilization indicator test packs” (3M Innovative Properties Company, priority 1998, dated 2006)
